Data as given in patent publication US20050004018A1, “Use of antitumoral compound in cancer therapy” (priority 2001, published 2005).
Where two headings read alike, the source gives them in different places.

Assays:
cancer patients [1] = test: phase I clinical trial, 3 hours iv infusion weekly for 3 consecutive weeks every 4 weeks; assay type: in vivo, human
Experimental: A phase I clinical trial was carried out with the following protocol:
Dose schedule: ET-743 will be administered every week as a 3hours iv infusion for 3 consecutive weeks every 4 weeks.
Starting dose and dose escalation: The starting dose will be 300 μg/m^2 weekly of ET-743 given as a intravenous infusion over 3 hours for 3 consecutive weeks every 4 weeks. Patients will be sequentially enrolled into the following dose cohorts beginning at dose Level 1. A minimum cohort size of 3 patients will be treated at each of the dose levels.
Accrual at the next higher dose level: At least 1 patient at each dose level must have completed 1 cycle of therapy and two patients must have completed treatment on day 15 before a new patient can be treated at the next highest dose. Conditions for retreatment: Patients are eligible for retreatment […] intolerable toxicity, the patient desires further treatment, and fulfill the eligibility criteria. Dose Limiting Toxicities (DLTs)
Dose limiting toxicities (DLT) will be defined as follows: • ANC <500/μL for longer than 5 days. • ANC <500/μL accompanied by fever (at least 100.5° F.). • Platelets <25,000/μL. • Any grade 3-4 nonhematological toxicity except nausea/vomiting (provided the patient is receiving an optimal antiemetic regimen consisting of dexamethasone and a serotonin antagonist on an optimal dose-schedule for prophylaxis and management), alopecia. Grade 3 or 4 elevation in trasaminases that result in either omission of 2 scheduled treatments within a cycle or delay in the initiation of a subsequent course exceeding 2 weeks. • Missing at least 2 scheduled treatments during a single course due to drug-induced toxicity (missed doses will not be made up). • Delay in the initiation of a subsequent course of treatment exceeding 2 weeks. Determination of the Maximum Tolerated Dose (MTD)
Cohort of 3 patients will be treated at each dose level. If no DLT is seen during the first cycle in the cohort of patients at any given dose level, new patients may be treated at the next higher level.
If any patient encounters drug-induced DLT during either cycle 1 or 2, a maximum of 6 patients may be treated at that level. If DLT is not observed in the additional patients, new patients may be treated at the next higher dose level.
If at least 2 patients experience DLT at any given dose level, this dose level will be considered the Maximum Tolerated Dose (MTD). However, it is possible that additional patients may experience DLT due to the timing of patient enrollment into that dose level.
Once an MTD level is established, subsequent patients should be treated at the next lower dose level. Intermediate doses may be used in some instances and flexibility is an integral part of the protocol. If two or more patients experience DLT at the lower dose level, then the MTD has again been established and additional patients will be treated at the next lower dose (unless sufficient numbers of patients have already been treated at that dose level).
The RD is defined as the highest dose level at which less than 2 of 6 patients experience DLT during cycles 1 or 2. At the RD, sufficient numbers of patients will be accrued so at least 6 patients receive at least 2 cycles of therapy, and at least 4 patients receive at least 4 courses of treatment.
This trial was launched in May 00 and last patient was included in March 02. 31 patients were treated.
Tumours included: Sarcomas (19), UOT (1), Lung (1), Ovary (4), Breast (2), Uterus (1), Melanoma (2), Colorectal (1)

cancer patients [2] = conditions: cited from earlier work
cancer patients [3] = conditions: cited from earlier work; remark: listed apart in the source
human tumor xenografts = conditions: broad range of in vivo tumor models, including human tumor xenografts in nude mice; cited from earlier work
mice = conditions: single or fractionated dose, intravenous; cited from earlier work
cynomolgus monkeys = conditions: cited from earlier work
canine progenitor cells = conditions: cited from earlier work
[4] = 3 hour weekly ×3/4 weeks infusion, per patient, number (%)
[5] = % of treatment courses at the RD

Substance: ecteinascidin 743 [ET-743]
- G3 transaminases (cancer patients [1]; 29 patients evaluated): 10%
- ALT G2(%) (cancer patients [1]; [4]): 9(31) %
- ALT G3(%) (cancer patients [1]; [4]): 3(10.3) %
- ALT G4(%) (cancer patients [1]; [4]): 0%
- Alk Phos G2(%) (cancer patients [1]; [4]): 1(3.4) %
- Alk Phos G3(%) (cancer patients [1]; [4]): 2(6.9) %
- Alk Phos G4(%) (cancer patients [1]; [4]): 0%
- Bilirubin G2(%) (cancer patients [1]; [4]): 0%
- Bilirubin G3(%) (cancer patients [1]; [4]): 1(3.4) %
- Bilirubin G4(%) (cancer patients [1]; [4]): 0%
- Creatine Kinase G2(%) (cancer patients [1]; [4]): 1(3.4) %
- Creatine Kinase G3(%) (cancer patients [1]; [4]): 0%
- Creatine Kinase G4(%) (cancer patients [1]; [4]): 1(3.4) %
- Creatinine G2(%) (cancer patients [1]; [4]): 1(3.4) %
- Creatinine G3(%) (cancer patients [1]; [4]): 0%
- Creatinine G4(%) (cancer patients [1]; [4]): 0%
- Hemoglobin G2(%) (cancer patients [1]; [4]): 9(31) %
- Hemoglobin G3(%) (cancer patients [1]; [4]): 1(3.4) %
- Hemoglobin G4(%) (cancer patients [1]; [4]): 0%
- Neutrophils G2(%) (cancer patients [1]; [4]): 1(3.4) %
- Neutrophils G3(%) (cancer patients [1]; [4]): 2(6.9) %
- Neutrophils G4(%) (cancer patients [1]; [4]): 1(3.4) %
- Platelets G2(%) (cancer patients [1]; [4]): 1(3.4) %
- Platelets G3(%) (cancer patients [1]; [4]): 0%
- Platelets G4(%) (cancer patients [1]; [4]): 0%
- Grade 3-4 ALT (cancer patients [1]; Weekly schedule): 10.3%
- Grade 3-4 Bilirubin (cancer patients [1]; Weekly schedule): 3.4%
- Grade 3-4 Creatinine (cancer patients [1]; Weekly schedule): 0%
- Grade 3-4 Creatinine Kinase (cancer patients [1]; Weekly schedule): 3.4%
- Grade 3-4 Hemoglobin (cancer patients [1]; Weekly schedule): 3.4%
- Grade 3-4 Neutrophils (cancer patients [1]; Weekly schedule): 10.3%
- Grade 3-4 Platelets (cancer patients [1]; Weekly schedule): 0%
- Serious renal toxicity (G3-4) (cancer patients [1]; Weekly schedule): has not been seen
- DLT defining the MTD (cancer patients [1]; at the 4th level (650)): Long lasting grade 3 neutropenia, and g3 Bilirubin toxicity
- long lasting stabilizations (cancer patients [1]; ovarian cancer): 2
- minor responses (cancer patients [1]; patients with sarcoma): 2
- grade 3-4 neutropenia (cancer patients [1]; per patient, 29 patients evaluated): 10.3%
- long lasting stabilizations (cancer patients [1]; sarcoma): 2
- reduction of the most frequent toxicities (cancer patients [1]; weekly schedule vs previous schedules): more than 3 times
- MTD (cancer patients [1]; weekly×3/4 weeks, 3 hour infusion): 650 mcg/sm
- recommended dose (cancer patients [1]; ×3 every 4 weeks, 3 hour infusion): 580 mcg/sm
- DLT (dose limiting toxicity) (cancer patients [2]; 24hr infusion every 3 weeks): hematotoxicity
- MTD (maximum tolerated dose) (cancer patients [2]; 24hr infusion every 3 weeks): 1800 μg/m^2
- RD (recommended dose) (cancer patients [2]; 24hr infusion every 3 weeks): 1500 μg/m^2
- Grade 2 or greater hyperbilirubinemia (cancer patients [2]; [5]): 30%
- Grade 3 or 4 transaminases, cycles (cancer patients [2]; at the RD, % of cycles): 38%
- Grade 3 or 4 transaminases, patients (cancer patients [2]; at the RD, % of patients): 68%
- MTD (cancer patients [3]; 3-hr infusion every 3 weeks): 1800 μg/M^2
- RD for Phase II studies (cancer patients [3]; 3-hr infusion every 3 weeks): 1650 μg/M^2
- increases of bilirubin G2 or greater (cancer patients [3]; [5]): 9%
- antitumor activity in vivo (human tumor xenografts): Potent antitumor activity
- toxicity (mice): reversible hematological and hepatic toxicity
- toxicity (cynomolgus monkeys; fractionated dosing): only minor toxicity
- toxicity (cynomolgus monkeys; single doses): hepatic and hematological toxicity, emesis and diarrhoea
- sensitivity of progenitor cells (canine progenitor cells): equal sensitivity of erythropoid and myeloid cells
